Patent US20160129080A1, “TREATMENT OF POLYPOIDAL CHROIDAL VASCULOPATHY” (priority 2013, published 2016)

What was measured:
[1] = Indocyanine green angiography-assessed complete regression of polyps, randomized three-group patient study; assay type: in vivo, human; settings: month 6, 61 patients randomized to three groups, ranibizumab 0.5 mg intravitreal
Method: (§1) Sixty-one patients were randomized to three treatment groups: verteporfin photodynamic therapy, ranibizumab 0.5 mg, or the combination. Patients were administered with verteporfin photodynamic therapy/placebo and initiated with three consecutive monthly intravitreal ranibizumab/sham injections starting from day 1 (first photodynamic therapy session). Indocyanine green angiography was performed at baseline and at months 3, 4, 5, and 6. Fluorescein angiography was performed to assess the presence of leakage and to obtain fundus photographs at the same times. Changes in central retinal thickness were determined by optical coherence tomography. Treatment with ranibizumab/sham injections was repeated at months 3-5 on an as-needed basis.
(§2) The primary endpoint was the proportion of patients with indocyanine green angiography-assessed complete regression of polyps at month 6. Secondary endpoints included mean change in best corrected visual acuity at month 6 and safety.

[2] = Best corrected visual acuity change, randomized three-group patient study; assay type: in vivo, human; settings: month 6; mean±SD; ranibizumab 0.5 mg intravitreal
Method: as §1, §2

verteporfin
proportion of patients with complete polyp regression [1]: 71.4%
Mean change±standard deviation in best corrected visual acuity [2]: 7.5±10.6 letters

B1: ranibizumab (antibody, chains of the INN, looked up, V domains shown)
VH: EVQLVESGGGLVQPGGSLRLSCAASGYDFTHYGMNWVRQAPGKGLEWVGWINTYTGEPTYAADFKRRFTFSLDTSKSTAYLQMNSLRAEDTAVYYCAKYPYYYGTSHWYFDVWGQGTLVTVSS
VL: DIQLTQSPSSLSASVGDRVTITCSASQDISNYLNWYQQKPGKAPKVLIYFTSSLHSGVPSRFSGSGSGTDFTLTISSLQPEDFATYYCQQYSTVPWTFGQGTKVEIK
modifications: Fab
notes: anti-VEGF antibody antagonist approved for human use
proportion of patients with complete polyp regression [1]: 28.6%
Mean change±standard deviation in best corrected visual acuity [2]: 9.2±12.4 letters
